For twelve molecules, IC50 results are on record in patent US20230416225A1, “DIAMINOPYRIMIDINE CARBOXAMIDE INHIBITORS OF HPK1” (MERCK SHARP & DOHME LLC, priority 2020, published 2023).

Molecules are shown by their SMILES. pIC50: −log10 of the molar value.

This assay has as its target T1, Human HPK1, catalytic domain (Homo sapiens, UniProt Q92918).
T1 construct: purchased Carna
T1 sequence (Q92918 1-346): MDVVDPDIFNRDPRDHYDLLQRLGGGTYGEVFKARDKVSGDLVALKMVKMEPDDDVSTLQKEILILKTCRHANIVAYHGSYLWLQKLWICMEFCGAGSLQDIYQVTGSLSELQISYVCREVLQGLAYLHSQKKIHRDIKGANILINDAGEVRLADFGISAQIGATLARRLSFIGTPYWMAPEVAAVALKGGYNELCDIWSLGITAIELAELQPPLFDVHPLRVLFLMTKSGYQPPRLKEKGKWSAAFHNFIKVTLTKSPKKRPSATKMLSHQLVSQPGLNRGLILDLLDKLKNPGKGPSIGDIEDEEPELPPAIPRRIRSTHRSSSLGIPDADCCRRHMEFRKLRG
As to the kind of experiment: HPK1-SLP76 TR-FRET assay. It is filed as biochemical. The following applies: 75 pM HPK1, 10 uM ATP, 10 nM SLP76, 30 min compound pre-incubation.

For `CCc1ccccc1Nc1ncc(C(N)=O)c(Nc2cccc3c2CCNC3=O)n1` [Example 25-15, 2-[(2-ethylphenyl)amino]-4-[(1-oxo-1,2,3,4-tetrahydroisoquinolin-5-yl)amino]pyrimidine-5-carboxamide], the negative-log IC50 (pIC50) was 6.68.

As for `COc1cc2c(cc1Nc1ncc(C(N)=O)c(Nc3ccccc3-c3nccs3)n1)CN(C)CC2` [Example 14-2, 2-[(6-methoxy-2-methyl-1,2,3,4-tetrahydroisoquinolin-7-yl)amino]-4-{[2-(1,3-thiazol-2-yl)phenyl]amino}pyrimidine-5-carboxamide], the negative logarithm of the IC50 (pIC50) was 9.59. Regarding `COc1cc2c(cc1Nc1ncc(C(N)=O)c(N[C@H]3c4ccccc4C[C@@H]3O)n1)CN(C)CC2` [Example 26-66, 4-{[(1S,2S)-2-hydroxy-2,3-dihydro-1H-inden-1-yl]amino}-2-[(6-methoxy-2-methyl-1,2,3,4-tetrahydroisoquinolin-7-yl)amino]pyrimidine-5-carboxamide], the pIC50 was 6.71. Next, `COc1cc2c(cc1Nc1ncc(C(N)=O)c(Nc3ccccc3Br)n1)CN(S(=O)(=O)C1CC1)CC2` [Example 10-8, 4-[(2-bromophenyl)amino]-2-{[2-(cyclopropylsulfonyl)-6-methoxy-1,2,3,4-tetrahydroisoquinolin-7-yl]amino}pyrimidine-5-carboxamide]: 6.07; `CS(=O)(=O)c1ccc(Nc2ncc(C(N)=O)c(Nc3cccc4c3CCNC4=O)n2)cc1` [Example 7-48, 2-{[4-(methylsulfonyl)phenyl]amino}-4-[(1-oxo-1,2,3,4-tetrahydroisoquinolin-5-yl)amino]pyrimidine-5-carboxamide]: 8.89.

With `COc1cc2c(cc1Nc1ncc(C(N)=O)c(Nc3cc(C)nn3-c3ccccc3)n1)CN(C)CC2` [Example 7-92, 2-((6-methoxy-2-methyl-1,2,3,4-tetrahydroisoquinolin-7-yl)amino)-4-((3-methyl-1-phenyl-1H-pyrazol-5-yl)amino)pyrimidine-5-carboxamide], the negative-log IC50 (pIC50) is 7.96.

With `NC(=O)c1cnc(Nc2ccc3c(c2)C(=O)OCC3)nc1Nc1ccccc1Br` [Example 7-106, 4-[(2-bromophenyl)amino]-2-[(1-oxo-3,4-dihydro-1H-2-benzopyran-7-yl)amino]pyrimidine-5-carboxamide], the negative-log IC50 (pIC50) is 7.20. Molecule `COc1cc2c(cc1Nc1ncc(C(N)=O)c(NC3CC[C@H]4NCCC[C@@H]34)n1)CN(C)CC2` (stereo partly drawn) [Example 26-10, 2-[(6-methoxy-2-methyl-1,2,3,4-tetrahydroisoquinolin-7-yl)amino]-4-{[(4aR,7aR)-octahydro-1H-cyclopenta[b]pyridin-5-yl]amino}pyrimidine-5-carboxamide] gave a pIC50 of 8.97. Turning to `NC(=O)c1cnc(Nc2ccc3c(c2)COCC3)nc1Nc1cccc2c1CCNC2` [Example 7-16, 2-[(3,4-dihydro-1H-2-benzopyran-7-yl)amino]-4-[(1,2,3,4-tetrahydroisoquinolin-5-yl)amino]pyrimidine-5-carboxamide], the pIC50 was 9.85. Molecule `COc1cc2c(cc1Nc1ncc(C(N)=O)c(Nc3ccccc3C(=O)NC3CC3)n1)CN(C)CC2` [Example 7-118, 4-((2-(cyclopropylcarbamoyl)phenyl)a-mino)-2-((6-methoxy-2-methyl-1,2,3,4-tetrahydroisoquinolin-7-yl)amino)pyrimidine-5-carboxamide] showed a negative logarithm of the IC50 (pIC50) of 8.56.

`CNC(=O)c1cccc(Nc2nc(Nc3cc4c(cc3Cl)CCN(C)C4)ncc2C(N)=O)c1` [Example 7-39, 2-[(6-chloro-2-methyl-1,2,3,4-tetrahydroisoquinolin-7-yl)amino]-4-{[3-(methylcarbamoyl)phenyl]amino} pyrimidine-5-carboxamide] gave a negative-log IC50 (pIC50) of 7.24. For the molecule `CC(C1CC1)n1cc(Nc2ncc(C(N)=O)c(Nc3cccc4c3CCNC4=O)n2)cn1` (stereo not drawn) [Example 7-46, 2-{[1-(1-cyclopropylethyl)-1H-pyrazol-4-yl]amino}-4-[(1-oxo-1,2,3,4-tetrahydroisoquinolin-5-yl)amino]pyrimidine-5-carboxamide], the negative-log IC50 (pIC50) is 9.55.
